Laboratory results published in US5464820A, “Specific inhibitors of tissue kallikrein” (priority 1993, dated 1995).
“And” between values parts separate entries of the source, which are not always exact repeats. Equal entries are not always repeated. Where two headings read alike, the source gives them in different places. Each block holds one compound with its values, some of them ahead of it. Starred links: 1 amine or outer side, 2 acyl side, 3 side chain; linkers in the order of their positions; H or OH if unused. Non-standard residues stand in square brackets, D forms with d. Residues, ends and D or L forms follow the SMILES beside them. X3 = O=C([C@H](N[*:1])C12CC3CC(CC(C3)C1)C2)[*:2]; Phe(4-NH2) = Nc1ccc(C[C@H](N)C(=O)O)cc1; Phe(2-F) = N[C@@H](Cc1ccccc1F)C(=O)O; X2 = CCC(CC)[C@@H](N[*:1])C(=O)[*:2]; Orn = NCCC[C@H](N)C(=O)O

Legend:
urokinase (UK) = biological target: T1, urokinase (UK) (Homo sapiens, UniProt P00749); test: Inhibition of urokinase (KI); format: biochemical; settings: Table 7; read-out: K1 UK
T1 construct: purchased Sigma Chemical Company (St. Louis, Mo.)
Excerpt: (§1) Assay methods were based on the cleavage of chromogenic substrate S-2266 (D-Val-Leu-Arg-pNA) (Kabi; Charlotte, N.C.) by porcine pancreatic kallikrein (Sigma Chemical Company; St. Louis, Mo.) to yield an increase in absorbance at 405 nm. By changing the substrate and enzyme, the general method has been extended to measure the inhibition of human tissue kallikrein (HTK or human urinary kallikrein HUK), human plasma kallikrein (HPK), plasmin, and urokinase (UK). In all assays, the robot dilutes the inhibitor into a series of wells and adds substrate and buffer. Chromogenic reactions are started by the addition of enzyme. Changes in the absorbance at 405 nm in an array of wells were recorded. All manipulations were performed by the instrument from reservoirs containing substrate, inhibitor, diluent (water), buffer, or enzyme.

[1] = biological target: porcine pancreatic kallikrein (PPK) (Sus scrofa, UniProt P00752); test: Inhibition of porcine pancreatic kallikrein, cleavage of chromogenic substrate S-2266 (KI); format: biochemical
Chain of porcine pancreatic kallikrein (PPK) (P00752 8-87 limits assumed): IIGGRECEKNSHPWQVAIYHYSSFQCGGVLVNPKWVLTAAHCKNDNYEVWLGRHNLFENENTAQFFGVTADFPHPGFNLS
Chain of porcine pancreatic kallikrein (PPK) (P00752 95-246 limits assumed): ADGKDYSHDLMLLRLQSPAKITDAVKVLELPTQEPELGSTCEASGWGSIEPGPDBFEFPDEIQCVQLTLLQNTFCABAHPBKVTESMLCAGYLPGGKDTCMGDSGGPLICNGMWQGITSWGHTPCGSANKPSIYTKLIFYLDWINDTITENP

[2] = biological target: human plasma kallikrein (HPK) (Homo sapiens, UniProt P03952); test: Inhibition of human plasma kallikrein (KI); format: biochemical
Chain of human plasma kallikrein (HPK) (P03952 20-638): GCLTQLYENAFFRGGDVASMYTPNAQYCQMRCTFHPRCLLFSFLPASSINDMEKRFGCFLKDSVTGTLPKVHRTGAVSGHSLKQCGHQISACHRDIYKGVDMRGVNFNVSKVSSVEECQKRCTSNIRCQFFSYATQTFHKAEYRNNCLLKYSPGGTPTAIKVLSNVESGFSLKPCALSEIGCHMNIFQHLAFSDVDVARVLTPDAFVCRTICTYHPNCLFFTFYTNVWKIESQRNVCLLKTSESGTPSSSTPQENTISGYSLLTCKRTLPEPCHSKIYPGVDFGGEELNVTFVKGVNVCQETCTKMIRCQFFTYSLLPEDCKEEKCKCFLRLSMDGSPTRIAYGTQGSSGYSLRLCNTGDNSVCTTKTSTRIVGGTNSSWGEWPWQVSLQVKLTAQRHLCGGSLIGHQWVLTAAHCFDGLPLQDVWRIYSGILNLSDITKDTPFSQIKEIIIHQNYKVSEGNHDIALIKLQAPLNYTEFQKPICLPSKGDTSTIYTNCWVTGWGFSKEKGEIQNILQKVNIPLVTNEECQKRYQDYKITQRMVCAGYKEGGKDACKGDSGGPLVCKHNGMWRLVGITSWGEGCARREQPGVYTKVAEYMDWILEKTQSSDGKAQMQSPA
Excerpt: as §1

[3] = Measured lipophilicity (KO/W); format: physicochemical; settings: Table 2, measured lipophilicity, change relative to Gly analog
Excerpt: Listed in Table 2 are KI values along with changes in volume (ΔV), measured lipophilicity (ΔKO/W), and calculated lipophilicity (ΔCLOGP). Some of the substrates containing a D-amino acid residue at P3 are rapidly hydrolyzed by tissue kallikrein. To overcome this problem, a new method was also used to determine KI (see Example 6).

[4] = biological target: T2, human urinary kallikrein (HUK) (Homo sapiens, UniProt P06870); test: Inhibition of human urinary (tissue) kallikrein (KI); format: biochemical
T2 construct: Human urinary kallikrein (HUK) was purified from human urine; from tissue
T2 sequence (P06870 25-262): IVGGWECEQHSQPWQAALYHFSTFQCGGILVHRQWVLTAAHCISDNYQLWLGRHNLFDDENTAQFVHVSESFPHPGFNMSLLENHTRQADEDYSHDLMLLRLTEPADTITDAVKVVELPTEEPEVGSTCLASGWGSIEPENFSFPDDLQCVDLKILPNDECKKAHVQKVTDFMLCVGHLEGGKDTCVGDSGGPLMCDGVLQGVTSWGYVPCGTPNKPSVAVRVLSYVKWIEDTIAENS
Protocol: Human urinary kallikrein (HUK) was purified from human urine. Briefly, urine was subjected to ultrafiltration to concentrate the protein components which were applied to approtinin-CH-Sepharose affinity columns. Active fractions from these columns were next applied to Sephadex G-100 gel filtration and collected as fractions. The pH of each fraction was determined immediately upon elution, and the fraction was neutralized by addition of 2.0 ml of 2M Tris-HCL buffer, pH 8.0. Porcine pancreatic 24-kallikrein (PPK), at 50 units/mg protein; 1.0 units hydrolyses 1.0 μM BAEE (benzoyl -L-arginine ethyl ester) to N-a-benzoyl-L-arginine/minute at pH 8.7 at 25° C., was purchased from Sigma Chemical Company (St. Louis, Mo.). […] All other enzymes were purchased from Sigma Chemical Company (St. Louis, Mo.).
Dixon plots were used for data reduction and for calculation of […].
as §1

[5] = Table 7, in mM, read-out: K1 PPK
[6] = Table 7, in mM, read-out: K1 HPK

Ki (urokinase (UK)): > 20000 µM
Ki ([1]; Table 7, read-out: K1 PPK): 0.294 mM
Ki ([2]; Table 7, read-out: K1 HPK): 2.5 mM
Compound: CC(C)[C@H](NC(=O)[C@H](CO)NC(=O)[C@H](CCCCN)NC(=O)[C@H](Cc1ccccc1)NC(=O)[C@@H]1CCCN1)C(=O)N[C@@H](CCC(N)=O)C(N)=O [KIDZ-2, Pro-Phe-Lys-Ser-Val-Gln] (H-PFKSVQ-NH2)

ΔLog KO/W [3]: 1.88
Compound: CC(C)[C@H](NC(=O)[C@H](CO)NC(=O)[C@H](CCCNC(=N)N)NC(=O)[C@H](Cc1ccccc1)NC(=O)[C@H](N)C12CC3CC(CC(C3)C1)C2)C(=O)N[C@@H](CCC(N)=O)C(N)=O [KKI-88, [D-Adg]-Phe-Arg-Ser-Val-Gln] (H-[X3]FRSVQ-NH2; N-terminus assumed)

Ki (urokinase (UK)): > 20000 µM
Ki [1, 5]: > 4 mM
Ki [2, 6]: > 20 mM
Compound: CSCC[C@H](NC(=O)[C@H](Cc1ccccc1)NC(=O)[C@@H]1CCCN1)C(=O)N[C@@H](CO)C(=O)N[C@H](C(=O)N[C@@H](CCC(N)=O)C(N)=O)C(C)C [KIDZ-13, Pro-Phe-Met-Ser-Val-Gln] (H-PFMSVQ-NH2)

Ki (urokinase (UK)): > 20000 µM
Ki ([1]; Table 7, read-out: K1 PPK): 0.036 mM
Ki ([1]; text b391, read-out: PPK KI): < 0.05 mM
Ki [2, 6]: > 10 mM
Ki ([4]; Table 7, read-out: K1 HUK): 21 µM
Ki ([4]; text b391, read-out: HUK KI): < 50 µM
Compound: CC(C)[C@H](NC(=O)[C@H](CO)NC(=O)[C@H](Cc1ccc(N)cc1)NC(=O)[C@H](Cc1ccccc1)NC(=O)[C@@H]1CCCN1)C(=O)N[C@@H](CCC(N)=O)C(N)=O [KIDZ-6, Pro-Phe-Aph-Ser-Val-Gla] (H-PF[Phe(4-NH2)]SVQ-NH2)

Ki (urokinase (UK)): > 20000 µM
Ki ([1]; Table 7, read-out: K1 PPK): 0.4 to 0.8 mM
Compound: CC(C)[C@H](NC(=O)[C@H](CO)NC(=O)[C@H](CCCNC(=N)N)NC(=O)[C@@H](NC(=O)[C@@H]1CCCN1)[C@@H](C)O)C(=O)N[C@@H](CCC(N)=O)C(N)=O [KIDZ-14, Pro-Thr-Arg-Ser-Val-Gln] (H-PTRSVQ-NH2)

Ki (urokinase (UK)): > 20000 µM
Ki ([1]; Table 7, read-out: K1 PPK): 0.11 mM
Ki [2, 6]: > 20 mM
Compound: Pro-Map-Aph-Ser-Val-Gln [KIDZ-15]
selectivity for tissue kallikrein over plasma kallikrein or urokinase ([1]; Table 7): selectivity for tissue kallikrein over plasma kallikrein or urokinase

Ki (urokinase (UK)): > 20000 µM
Ki [1, 5]: > 1 mM
Ki [2, 6]: > 20 mM
Compound: CC(C)[C@H](NC(=O)[C@H](CO)NC(=O)[C@H](Cc1c[nH]cn1)NC(=O)[C@H](Cc1ccccc1)NC(=O)[C@@H]1CCCN1)C(=O)N[C@@H](CCC(N)=O)C(N)=O [KIDZ-12, Pro-Phe-His-Ser-Val-Gln] (H-PFHSVQ-NH2)

Ki (urokinase (UK)): > 20000 µM
Ki [1, 5]: > 5 mM
Ki [2, 6]: > 5 mM
Compound: CC(C)[C@H](NC(=O)[C@H](CO)NC(=O)[C@H](CCCN)NC(=O)[C@H](Cc1ccccc1)NC(=O)[C@@H]1CCCN1)C(=O)N[C@@H](CCC(N)=O)C(N)=O [KIDZ-3, Pro-Phe-Orn-Ser-Val-Gln] (H-PF[Orn]SVQ-NH2)

Ki ([1]; Table 4, Pro-X-Arg-Ser-Val-Gln, read-out: KI PPK): 0.124 mM
Ki ([2]; Table 4, Pro-X-Arg-Ser-Val-Gln, read-out: KI HPK): 0.472 mM
Ki ([4]; Table 4, Pro-X-Arg-Ser-Val-Gln, read-out: KI HUK): 151 µM
Compound: CC(C)[C@H](NC(=O)[C@H](CO)NC(=O)[C@H](CCCNC(=N)N)NC(=O)[C@H](Cc1ccccc1F)NC(=O)[C@@H]1CCCN1)C(=O)N[C@@H](CCC(N)=O)C(N)=O [KCH-1] (H-P[Phe(2-F)]RSVQ-NH2)

ΔLog KO/W [3]: 1.11
Compound: CCC(CC)[C@@H](N)C(=O)N[C@@H](Cc1ccccc1)C(=O)N[C@@H](CCCNC(=N)N)C(=O)N[C@@H](CO)C(=O)N[C@H](C(=O)N[C@@H](CCC(N)=O)C(N)=O)C(C)C [KKI-87, [D-Ile(4Me)]-Phe-Arg-Ser-Val-Gln] (H-[X2]FRSVQ-NH2; N-terminus assumed)

Ki ([1]; Table 5, Pro-Phe-Arg-X-Val-Gln, read-out: KI PPK): 0.058 mM and 0.099 mM and 0.067 mM
Ki ([1]; Table 5, values in [] : Dithiothreitol, read-out: KI PPK): 0.033 mM
Ki ([2]; Table 5, Pro-Phe-Arg-X-Val-Gln, read-out: KI HPK): 0.244 mM
Ki ([4]; Table 5, Pro-Phe-Arg-X-Val-Gln, read-out: KI HUK): 99 µM
Compound: CC(C)[C@H](NC(=O)[C@H](CC(N)=O)NC(=O)[C@H](CCCNC(=N)N)NC(=O)[C@H](Cc1ccccc1)NC(=O)[C@@H]1CCCN1)C(=O)N[C@@H](CCC(N)=O)C(N)=O [Asn] (H-PFRNVQ-NH2)
